Experimental data: patent publication US20120059034A1, “NOVEL CRYSTALLINE HYDRATE, AMORPHOUS AND POLYMORPHIC FORMS OF DIHYDRO-BENZOXAZOLE-6-YL-ACETAMIDE DERIVATIVE AND PROCESSES FOR THEIR PREPARATION” (priority 2009, published 2012)
Values belong to the molecule of their own block, whether it stands above or below them.

Key:
[1] = Thermal stability, loss of water of hydration at 50° C. in N2 atmosphere; type: physicochemical
Description: (§1) 1. Characteristic reflections of radiprodil monohydrate are the followings: 4.9, 15.1, 18.1, 26.8 and 30.2±0.2° 2θ 2. Characteristic IR absorption bands of radiprodil monohydrate are the followings: 3644, 1836, 1809, 1789, 1645 and 919±4 cm^−1. 3. Characteristic Raman absorption bands of radiprodil monohydrate are the followings: 2887, 1642, 1484, 1295 and 726±4 cm^−1. […] While the dihydrate Form can be dehydrated relatively easily at elevated temperature, the monohydrate Form is sufficiently stable under such conditions. […] This relative stability of the monohydrate Form compared to the dihydrate Form is advantageous in formulation technological steps involving elevated temperatures.

[2] = Pharmacokinetic profile in dogs (plasma concentrations by validated HPLC(UV) method); type: in vivo; conditions: 5 mg/kg dose adjusted to the anhydrous active substance, plasma samples up to 24 hours post dose
Description: Another essential value of the dihydrate Form is the observed better pharmacokinetic profile in dogs compared to the anhydrate Form A. Both forms in 5 mg/kg dose adjusted to the anhydrous active substance were administered to dogs and relevant pharmacokinetic parameters (AUC, Cmax) were calculated from the plasma profiles of the individual animals. The animals were […] seventeen hours before and six hours after drug administration. Plasma concentrations were measured in the trial samples taken up to 24 hours post dose by a validated HPLC(UV) method.

[3] = Storage stability of the amorphous form against crystallization; type: physicochemical; conditions: normal laboratory conditions, several months
From the text: (§2) 1. There are no reflections on XRPD pattern of radiprodil amorphous form. 2. Characteristic IR absorption bands of radiprodil amorphous form are the followings: 3275, 1768, 1685, 1219 and 544±4 cm^−1. 3. Characteristic Raman absorption bands of radiprodil amorphous are the followings: 3071, 1687, 1640, 1414, 1280 and 852±4 cm^−1. […] One particular advantage of the discovered amorphous Form is that it is relatively stable.

[4] = Solubility and dissolution rate of solid forms; type: physicochemical
Description: as §1, §2

[5] = Stress stability of the solid form (chemical impurities and physical form); type: physicochemical; conditions: stress conditions 25° C./75% RH; 50° C.; 50° C./oxygen; 50° C./75% RH; 50° C./90% RH; 75° C.; 75° C./oxygen, 10 days
Description: (§3) (IV) a DSC trace substantially in accordance with FIG. 5; • Characteristic diffraction and spectroscopic data of radiprodil anhydrate Form A are as follows: 1. Characteristic XRPD reflections of radiprodil anhydrate Form A are the following: 7.8, 22.0, 23.7, 27.0 and 27.6±0.2° 2 θ 2. Characteristic IR absorption bands of radiprodil anhydrate Form A are the following: 3295, 2863, 1852, 1768, 1058 and 635±4 cm^−1. 3. Characteristic Raman absorption bands of radiprodil anhydrate Form A are the following: 3106, 1680, 1641, 1470, 1274 and 507±4 cm^−1. […] All the other discovered solid forms can be converted to anhydrate Form A in suspension. This conversion takes place in absolute ethanol or in ethanol:water mixtures within a few hours. This relative stability advantage of anhydrous Form A of radiprodil can be favorably utilized in the development of active ingredient as well as dosage forms that are sufficiently stable both chemically and physically during extended shelf life. […] Due to its physical stability and non-hygroscopic character this polymorphic form is particularly advantageous in dosage formulation processes where the active ingredient is exposed to water during the process, such as wet granulation.

[6] = Hygroscopicity, weight gain at elevated humidity; type: physicochemical; conditions: 50° C./90% RH, 10 days
Description: as §3

[7] = Relative thermodynamic stability, conversion of solid forms in suspension; type: physicochemical; conditions: room temperature
Description: as §3

time to loss of water of hydration [1]: 2 h | AUC24 ([2]; dihydrate): 4491 ng·h/mL | Cmax ([2]; dihydrate): 395 ng/mL
SMILES: O=C(Nc1ccc2[nH]c(=O)oc2c1)C(=O)N1CCC(Cc2ccc(F)cc2)CC1 [dihydrate Form, 2-[4-(4-Fluorobenzyl)-piperidin-1-yl]-2-oxo-N-(2-oxo-2,3-dihydro-benzoxazol-6-yl)-acetamide dihydrate]

crystallization on storage [3]: without crystallization | dissolution rate among the solid forms [4]: largest | solubility among the solid forms [4]: largest
SMILES: O=C(Nc1ccc2[nH]c(=O)oc2c1)C(=O)N1CCC(Cc2ccc(F)cc2)CC1 [amorphous Form, 2-[4-(4-Fluorobenzyl)-piperidin-1-yl]-2-oxo-N-(2-oxo-2,3-dihydro-benzoxazol-6-yl)-acetamide amorphous form]

weight loss (water of hydration) ([1]; same conditions as dihydrate Form (2 hours)): does not show detectable weight loss | solubility compared to anhydrate Form A [4]: greater solubility
SMILES: O=C(Nc1ccc2[nH]c(=O)oc2c1)C(=O)N1CCC(Cc2ccc(F)cc2)CC1 [monohydrate Form, 2-[4-(4-Fluorobenzyl)-piperidin-1-yl]-2-oxo-N-(2-oxo-2,3-dihydro-benzoxazol-6-yl)-acetamide monohydrate]

weight gain (hygroscopicity) [6]: did not show measurable weight gain | AUC24 [2]: 1554 ng·h/mL | Cmax [2]: 125 ng/mL | thermodynamic stability among the discovered forms [7]: thermodynamically most stable form
SMILES: O=C(Nc1ccc2[nH]c(=O)oc2c1)C(=O)N1CCC(Cc2ccc(F)cc2)CC1 [anhydrate Form A, 2-[4-(4-Fluorobenzyl)-piperidin-1-yl]-2-oxo-N-(2-oxo-2,3-dihydro-benzoxazol-6-yl)-acetamide anhydrate Form A]
change of sum of chemical impurities and of physical form compared to the starting material [5]: neither the sum of chemical impurities nor the physical form has changed
